# Experiments:
# [1] = system: Saccharomyces eubayanus_SOA2; test: maximal culture density with compound as sole sulfur source (OD600); higher = better growth; details: S. cerevisiae S288C/BY sul1Δ sul2Δ soa1Δ with transporter ortholog inserted at SOA1 locus, sulfur-free B medium, 4% glucose, pH 6.5, sole sulfur source
# Description: (§1)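 S. cerevisiae sul1Δ sul2Δ soa1Δ strains expressing 20 fungal SOA1 orthologs (or no transporter, 'soa1 del') were grown in liquid sulfur-free B medium, 4% glucose, pH 6.5 (7 mM K2HPO4). The strains were sulfur-starved for 3 days beforehand. Each sulfur compound was the sole sulfur source at 200 µM (sulfate also at 40 mM). OD600 curves of duplicate cultures were averaged and fitted (logistic / Richards, GroFit) to give maximal growth rate, maximal density and lag phase; temperature not stated.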
# [2] = system: Saccharomyces uvarum_SOA2; test: as above; details: S. cerevisiae S288C/BY sul1Δ sul2Δ soa1Δ with transporter ortholog inserted at SOA1 locus, sulfur-free B medium, 4% glucose, pH 6.5, sole sulfur source
# Description: as §1
# [3] = system: Aspergillus nidulans_XP_661711; test: as above; details: S. cerevisiae S288C/BY sul1Δ sul2Δ soa1Δ with transporter ortholog inserted at SOA1 locus, sulfur-free B medium, 4% glucose, pH 6.5, sole sulfur source
# Description: as §1
# [4] = system: Aspergillus nidulans_XP_660563; test: as above; details: S. cerevisiae S288C/BY sul1Δ sul2Δ soa1Δ with transporter ortholog inserted at SOA1 locus, sulfur-free B medium, 4% glucose, pH 6.5, sole sulfur source
# Description: as §1
# [5] = system: Ogataea parapolymorpha_XP_013932458; test: as above; details: S. cerevisiae S288C/BY sul1Δ sul2Δ soa1Δ with transporter ortholog inserted at SOA1 locus, sulfur-free B medium, 4% glucose, pH 6.5, sole sulfur source
# Description: as §1
# [6] = system: Metarhizium robertsii_XP_007821441; test: as above; details: S. cerevisiae S288C/BY sul1Δ sul2Δ soa1Δ with transporter ortholog inserted at SOA1 locus, sulfur-free B medium, 4% glucose, pH 6.5, sole sulfur source
# Description: as §1
# soa1 del [7] = test: as above; details: S. cerevisiae S288C/BY sul1Δ sul2Δ soa1Δ with transporter ortholog inserted at SOA1 locus, sulfur-free B medium, 4% glucose, pH 6.5, sole sulfur source
# Description: as §1
# [8] = system: Ogataea parapolymorpha_XP_013936897; test: as above; details: S. cerevisiae S288C/BY sul1Δ sul2Δ soa1Δ with transporter ortholog inserted at SOA1 locus, sulfur-free B medium, 4% glucose, pH 6.5, sole sulfur source
# Description: as §1
# [9] = system: Metarhizium robertsii_XP_007823832; test: as above; details: S. cerevisiae S288C/BY sul1Δ sul2Δ soa1Δ with transporter ortholog inserted at SOA1 locus, sulfur-free B medium, 4% glucose, pH 6.5, sole sulfur source
# Description: as §1
# [10] = system: Fusarium oxysporum_ENH65823; test: as above; details: sulfur source concentration 200 µM; S. cerevisiae S288C/BY sul1Δ sul2Δ soa1Δ with transporter ortholog inserted at SOA1 locus; sulfur-free B medium, 4% glucose, pH 6.5, sole sulfur source
# Description: as §1
# [11] = system: Aspergillus nidulans_XP_660670; test: as above; details: S. cerevisiae S288C/BY sul1Δ sul2Δ soa1Δ with transporter ortholog inserted at SOA1 locus, sulfur-free B medium, 4% glucose, pH 6.5, sole sulfur source
# Description: as §1
# [12] = system: Aspergillus nidulans (IAM 2006)_astA; test: as above; details: S. cerevisiae S288C/BY sul1Δ sul2Δ soa1Δ with transporter ortholog inserted at SOA1 locus, sulfur-free B medium, 4% glucose, pH 6.5, sole sulfur source
# Description: as §1
# [13] = system: Saccharomyces eubayanus_SOA1; test: as above; details: S. cerevisiae S288C/BY sul1Δ sul2Δ soa1Δ with transporter ortholog inserted at SOA1 locus, sulfur-free B medium, 4% glucose, pH 6.5, sole sulfur source
# Description: as §1
# [14] = system: Aspergillus nidulans_CBF80346; test: as above; details: S. cerevisiae S288C/BY sul1Δ sul2Δ soa1Δ with transporter ortholog inserted at SOA1 locus, sulfur-free B medium, 4% glucose, pH 6.5, sole sulfur source
# Description: as §1
# [15] = system: Aspergillus nidulans_CBF74694; test: as above; details: S. cerevisiae S288C/BY sul1Δ sul2Δ soa1Δ with transporter ortholog inserted at SOA1 locus, sulfur-free B medium, 4% glucose, pH 6.5, sole sulfur source
# Description: as §1
# [16] = system: Aspergillus nidulans_XP_681611; test: as above; details: S. cerevisiae S288C/BY sul1Δ sul2Δ soa1Δ with transporter ortholog inserted at SOA1 locus, sulfur-free B medium, 4% glucose, pH 6.5, sole sulfur source
# Description: as §1
# [17] = system: Ogataea parapolymorpha_XP_013935289; test: as above; details: S. cerevisiae S288C/BY sul1Δ sul2Δ soa1Δ with transporter ortholog inserted at SOA1 locus, sulfur-free B medium, 4% glucose, pH 6.5, sole sulfur source
# Description: as §1
# [18] = system: Metarhizium robertsii_XP_007822519; test: as above; details: S. cerevisiae S288C/BY sul1Δ sul2Δ soa1Δ with transporter ortholog inserted at SOA1 locus, sulfur-free B medium, 4% glucose, pH 6.5, sole sulfur source
# Description: as §1
# [19] = system: Saccharomyces uvarum_SOA1; test: as above; details: S. cerevisiae S288C/BY sul1Δ sul2Δ soa1Δ with transporter ortholog inserted at SOA1 locus, sulfur-free B medium, 4% glucose, pH 6.5, sole sulfur source
# Description: as §1
# [20] = system: Aspergillus nidulans_XP_661733; test: as above; details: S. cerevisiae S288C/BY sul1Δ sul2Δ soa1Δ with transporter ortholog inserted at SOA1 locus, sulfur-free B medium, 4% glucose, pH 6.5, sole sulfur source
# Description: as §1
# [21] = system: Saccharomyces cerevisiae_SOA1; test: as above; details: S. cerevisiae S288C/BY sul1Δ sul2Δ soa1Δ with transporter ortholog inserted at SOA1 locus, sulfur-free B medium, 4% glucose, pH 6.5, sole sulfur source
# Description: as §1
# [22] = system: Saccharomyces eubayanus_SOA2; test: maximal growth rate with compound as sole sulfur source (OD600 per h); higher = better growth / uptake of the sulfur source; details: S. cerevisiae S288C/BY sul1Δ sul2Δ soa1Δ with transporter ortholog inserted at SOA1 locus, sulfur-free B medium, 4% glucose, pH 6.5, sole sulfur source
# Description: as §1
# [23] = system: Aspergillus nidulans_XP_661711; test: as above; details: S. cerevisiae S288C/BY sul1Δ sul2Δ soa1Δ with transporter ortholog inserted at SOA1 locus, sulfur-free B medium, 4% glucose, pH 6.5, sole sulfur source
# Description: as §1
# [24] = system: Aspergillus nidulans_XP_660563; test: as above; details: S. cerevisiae S288C/BY sul1Δ sul2Δ soa1Δ with transporter ortholog inserted at SOA1 locus, sulfur-free B medium, 4% glucose, pH 6.5, sole sulfur source
# Description: as §1
# soa1 del [25] = test: as above; details: S. cerevisiae S288C/BY sul1Δ sul2Δ soa1Δ with transporter ortholog inserted at SOA1 locus, sulfur-free B medium, 4% glucose, pH 6.5, sole sulfur source
# Description: as §1
# [26] = system: Ogataea parapolymorpha_XP_013936897; test: as above; details: S. cerevisiae S288C/BY sul1Δ sul2Δ soa1Δ with transporter ortholog inserted at SOA1 locus, sulfur-free B medium, 4% glucose, pH 6.5, sole sulfur source
# Description: as §1
# [27] = system: Metarhizium robertsii_XP_007823832; test: as above; details: S. cerevisiae S288C/BY sul1Δ sul2Δ soa1Δ with transporter ortholog inserted at SOA1 locus, sulfur-free B medium, 4% glucose, pH 6.5, sole sulfur source
# Description: as §1
# [28] = system: Fusarium oxysporum_ENH65823; test: as above; details: S. cerevisiae S288C/BY sul1Δ sul2Δ soa1Δ with transporter ortholog inserted at SOA1 locus, sulfur-free B medium, 4% glucose, pH 6.5, sole sulfur source
# Description: as §1
# [29] = system: Aspergillus nidulans_XP_660670; test: as above; details: S. cerevisiae S288C/BY sul1Δ sul2Δ soa1Δ with transporter ortholog inserted at SOA1 locus, sulfur-free B medium, 4% glucose, pH 6.5, sole sulfur source
# Description: as §1
# [30] = system: Aspergillus nidulans (IAM 2006)_astA; test: as above; details: S. cerevisiae S288C/BY sul1Δ sul2Δ soa1Δ with transporter ortholog inserted at SOA1 locus, sulfur-free B medium, 4% glucose, pH 6.5, sole sulfur source
# Description: as §1
# [31] = system: Aspergillus nidulans_XP_681611; test: as above; details: S. cerevisiae S288C/BY sul1Δ sul2Δ soa1Δ with transporter ortholog inserted at SOA1 locus, sulfur-free B medium, 4% glucose, pH 6.5, sole sulfur source
# Description: as §1
# [32] = system: Metarhizium robertsii_XP_007822519; test: as above; details: S. cerevisiae S288C/BY sul1Δ sul2Δ soa1Δ with transporter ortholog inserted at SOA1 locus, sulfur-free B medium, 4% glucose, pH 6.5, sole sulfur source
# Description: as §1
# [33] = system: Saccharomyces uvarum_SOA1; test: as above; details: S. cerevisiae S288C/BY sul1Δ sul2Δ soa1Δ with transporter ortholog inserted at SOA1 locus, sulfur-free B medium, 4% glucose, pH 6.5, sole sulfur source
# Description: as §1
# [34] = system: Aspergillus nidulans_XP_661733; test: as above; details: S. cerevisiae S288C/BY sul1Δ sul2Δ soa1Δ with transporter ortholog inserted at SOA1 locus, sulfur-free B medium, 4% glucose, pH 6.5, sole sulfur source
# Description: as §1
# [35] = system: Saccharomyces cerevisiae_SOA1; test: as above; details: S. cerevisiae S288C/BY sul1Δ sul2Δ soa1Δ with transporter ortholog inserted at SOA1 locus, sulfur-free B medium, 4% glucose, pH 6.5, sole sulfur source
# Description: as §1
# [36] = sulfur source concentration 200 µM
# [37] = sulfur source concentration 40000 µM
structure (smiles),measurement,setting,value
O=S(=O)(O)O [sulfate],maximal culture density,[1]; [36],0.201
same,maximal culture density,[1]; [37],0.21
same,maximal culture density,[2]; [36],0.199
same,maximal culture density,[2]; [37],0.212
same,maximal culture density,[3]; [36],0.224
same,maximal culture density,[3]; [37],0.382
same,maximal culture density,[4]; [36],0.31
same,maximal culture density,[4]; [37],0.315
same,maximal culture density,[5]; [36],0.281
same,maximal culture density,[5]; [37],0.343
same,maximal culture density,[6]; [36],0.215
same,maximal culture density,[6]; [37],0.225
same,maximal culture density,soa1 del [7]; [36],0.212
same,maximal culture density,soa1 del [7]; [37],0.222
same,maximal culture density,[8]; [36],0.294
same,maximal culture density,[8]; [37],0.301
same,maximal culture density,[9]; [36],1.57
same,maximal culture density,[9]; [37],1.63
same,maximal culture density,[10],0.233
same,maximal culture density,[11]; [36],0.223
same,maximal culture density,[11]; [37],0.277
same,maximal culture density,[12]; [36],1.6
same,maximal culture density,[12]; [37],1.68
same,maximal culture density,[13]; [36],0.251
same,maximal culture density,[13]; [37],1.62
same,maximal culture density,[14]; [36],0.243
same,maximal culture density,[14]; [37],0.216
same,maximal culture density,[15]; [36],0.184
same,maximal culture density,[15]; [37],0.208
same,maximal culture density,[16]; [36],0.294
same,maximal culture density,[16]; [37],0.301
same,maximal culture density,[17]; [36],1.58
same,maximal culture density,[17]; [37],1.65
same,maximal culture density,[18]; [36],0.186
same,maximal culture density,[18]; [37],0.213
same,maximal culture density,[19]; [36],0.265
same,maximal culture density,[19]; [37],1.65
same,maximal culture density,[20]; [36],0.264
same,maximal culture density,[20]; [37],1.57
same,maximal culture density,[21]; [36],0.274
same,maximal culture density,[21]; [37],1.71
same,maximal growth rate,[22]; [36],0.00313
same,maximal growth rate,[22]; [37],0.00349
same,maximal growth rate,[23]; [36],0.00398
same,maximal growth rate,[23]; [37],0.00545
same,maximal growth rate,[24]; [36],0.00621
same,maximal growth rate,[24]; [37],0.00638
same,maximal growth rate,soa1 del [25]; [36],0.00368
same,maximal growth rate,soa1 del [25]; [37],0.0039
same,maximal growth rate,[26]; [36],0.00477
same,maximal growth rate,[26]; [37],0.00462
same,maximal growth rate,[27]; [36],0.0813
same,maximal growth rate,[27]; [37],0.088
same,maximal growth rate,[28]; [36],0.00376
same,maximal growth rate,[28]; [37],0.0142
same,maximal growth rate,[29]; [36],0.00401
same,maximal growth rate,[29]; [37],0.00492
same,maximal growth rate,[30]; [36],0.0953
same,maximal growth rate,[30]; [37],0.102
same,maximal growth rate,[31]; [36],0.00615
same,maximal growth rate,[31]; [37],0.0061
same,maximal growth rate,[32]; [36],0.00347
same,maximal growth rate,[32]; [37],0.00386
same,maximal growth rate,[33]; [36],0.0032
same,maximal growth rate,[33]; [37],0.0989
same,maximal growth rate,[34]; [36],0.00457
same,maximal growth rate,[34]; [37],0.0588
same,maximal growth rate,[35]; [36],0.00588
same,maximal growth rate,[35]; [37],0.123
